In one experiment the target is PDGFRβ (Homo sapiens (Human), UniProt P09619). Kind of experiment: Enzymic PDGFRβ. In kind it is biochemical.
A further experiment deals with VEGFR1 (Homo sapiens (Human), UniProt P17948). Kind of experiment: Enzymic VEGFR1. The experiment is classed as biochemical.
Experiment [1] addresses human VEGF receptor (VEGFR-2) (Homo sapiens (Human), UniProt P35968). Kind of experiment: VEGFR2 Kinase Assay (Enzymic VEGFR2). In kind it is biochemical. Particulars: His-VEGFR-2 cytoplasmic domain, 3.6 µM ATP. The procedure:
VEGFR2 Kinase Assay The cytoplasmic domain of the human VEGF receptor (VEGFR-2) was expressed as a Histidine-tagged fusion protein following infection of insect cells using an His engineered baculovirus. […] Kinase assays were performed in 96 well microtiter plates that were coated overnight with 30 µg of poly-Glu-[…]:1) in 10 mM Phosphate Buffered Saline (PBS), pH 7.2-7.4. The plates were incubated with 1% BSA and then washed four times with PBS prior to starting the reaction. […] Reactions were initiated by the addition 0.5 ng of purified protein. Following a ten minute incubation at 25° C., the reactions were washed four times with PBS containing 0.05% Tween-20. 100 µl of a monoclonal anti-phosphotyrosine antibody-peroxidase conjugate was diluted 1:10000 in PBS-Tween-20 and added to the wells for 30 minutes. Following four washes with PBS-Tween-20, 100 µl of 0-phenylenediamine Dihydrochloride in Phosphate-citrate buffer, containing urea hydrogen peroxide, was added to the wells for 7 minutes as a colorimetric substrate for the peroxidase. […] IC50 values for compound inhibition were calculated directly from graphs of optical density (arbitrary units) versus compound concentration following subtraction of blank values.

A further experiment deals with VEGFR2 (Homo sapiens (Human), UniProt P35968). The experiment can be described thus: VEGF Stimulated Ca++ Signal In Vitro (Cellular VEGFR2, FLIPR). The experiment is classed as cell-based. Particulars: HUVEC, VEGF stimulation (5 ng/mL), intracellular calcium.
Chain of VEGFR2 (P35968 20-1356): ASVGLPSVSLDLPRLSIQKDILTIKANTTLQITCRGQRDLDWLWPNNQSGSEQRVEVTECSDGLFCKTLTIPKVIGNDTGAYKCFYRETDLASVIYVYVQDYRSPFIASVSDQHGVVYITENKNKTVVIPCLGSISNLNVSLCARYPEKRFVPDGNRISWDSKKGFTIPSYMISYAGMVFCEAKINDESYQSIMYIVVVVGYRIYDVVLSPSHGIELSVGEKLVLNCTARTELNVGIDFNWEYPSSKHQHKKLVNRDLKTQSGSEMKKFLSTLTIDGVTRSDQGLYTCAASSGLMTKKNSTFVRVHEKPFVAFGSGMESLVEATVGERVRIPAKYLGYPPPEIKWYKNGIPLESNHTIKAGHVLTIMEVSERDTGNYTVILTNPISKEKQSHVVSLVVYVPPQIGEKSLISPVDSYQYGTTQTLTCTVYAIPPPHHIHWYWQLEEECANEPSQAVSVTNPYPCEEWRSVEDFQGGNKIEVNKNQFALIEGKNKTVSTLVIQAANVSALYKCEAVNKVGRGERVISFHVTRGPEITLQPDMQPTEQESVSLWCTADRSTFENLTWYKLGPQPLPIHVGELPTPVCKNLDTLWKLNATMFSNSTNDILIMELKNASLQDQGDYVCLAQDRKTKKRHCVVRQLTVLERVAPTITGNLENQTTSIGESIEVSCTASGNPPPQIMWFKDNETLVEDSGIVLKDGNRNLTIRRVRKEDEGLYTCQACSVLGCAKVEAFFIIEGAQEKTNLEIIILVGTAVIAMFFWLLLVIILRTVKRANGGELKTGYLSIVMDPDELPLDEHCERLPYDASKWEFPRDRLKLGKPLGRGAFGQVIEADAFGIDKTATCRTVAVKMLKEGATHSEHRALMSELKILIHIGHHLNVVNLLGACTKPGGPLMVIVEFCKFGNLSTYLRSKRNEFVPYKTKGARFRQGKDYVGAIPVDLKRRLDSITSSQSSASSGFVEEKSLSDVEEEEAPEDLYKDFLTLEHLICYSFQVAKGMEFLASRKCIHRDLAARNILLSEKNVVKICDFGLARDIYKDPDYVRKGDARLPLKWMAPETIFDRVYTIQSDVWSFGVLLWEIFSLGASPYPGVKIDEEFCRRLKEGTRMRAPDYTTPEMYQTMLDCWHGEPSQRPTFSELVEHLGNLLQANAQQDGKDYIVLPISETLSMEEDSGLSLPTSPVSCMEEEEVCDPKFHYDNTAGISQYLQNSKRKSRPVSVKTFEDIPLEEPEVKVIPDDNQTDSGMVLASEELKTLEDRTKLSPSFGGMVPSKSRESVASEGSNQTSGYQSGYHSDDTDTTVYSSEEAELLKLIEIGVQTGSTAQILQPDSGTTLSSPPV

Chain of PDGFRβ (P09619 33-1106, species assumed): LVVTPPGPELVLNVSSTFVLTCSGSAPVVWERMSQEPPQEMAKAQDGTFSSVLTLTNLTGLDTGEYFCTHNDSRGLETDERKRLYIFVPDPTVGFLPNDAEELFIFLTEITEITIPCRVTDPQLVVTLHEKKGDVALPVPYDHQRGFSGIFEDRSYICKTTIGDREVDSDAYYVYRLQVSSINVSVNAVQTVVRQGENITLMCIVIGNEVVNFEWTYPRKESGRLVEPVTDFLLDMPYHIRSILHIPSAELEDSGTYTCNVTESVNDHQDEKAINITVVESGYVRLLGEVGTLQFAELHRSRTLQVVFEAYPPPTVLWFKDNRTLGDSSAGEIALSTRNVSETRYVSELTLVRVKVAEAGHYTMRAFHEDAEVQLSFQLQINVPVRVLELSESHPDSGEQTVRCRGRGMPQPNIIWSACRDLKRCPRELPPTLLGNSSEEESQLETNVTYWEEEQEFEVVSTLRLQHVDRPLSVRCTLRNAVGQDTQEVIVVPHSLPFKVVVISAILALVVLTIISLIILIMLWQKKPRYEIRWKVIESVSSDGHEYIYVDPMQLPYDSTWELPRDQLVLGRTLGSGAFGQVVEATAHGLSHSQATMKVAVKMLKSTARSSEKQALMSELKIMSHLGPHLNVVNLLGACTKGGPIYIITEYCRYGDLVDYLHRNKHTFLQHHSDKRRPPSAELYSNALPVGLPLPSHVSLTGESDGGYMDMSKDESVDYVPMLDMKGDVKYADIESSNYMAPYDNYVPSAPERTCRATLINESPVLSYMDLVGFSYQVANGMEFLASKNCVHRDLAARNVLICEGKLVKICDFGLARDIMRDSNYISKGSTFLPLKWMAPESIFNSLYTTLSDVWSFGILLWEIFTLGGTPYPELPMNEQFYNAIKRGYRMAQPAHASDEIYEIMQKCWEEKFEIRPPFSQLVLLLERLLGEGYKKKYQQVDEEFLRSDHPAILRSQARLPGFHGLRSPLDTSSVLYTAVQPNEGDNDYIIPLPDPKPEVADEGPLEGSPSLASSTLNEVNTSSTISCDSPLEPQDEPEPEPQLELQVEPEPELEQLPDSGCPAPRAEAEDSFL
Chain of VEGFR1 (P17948 27-1338, species assumed): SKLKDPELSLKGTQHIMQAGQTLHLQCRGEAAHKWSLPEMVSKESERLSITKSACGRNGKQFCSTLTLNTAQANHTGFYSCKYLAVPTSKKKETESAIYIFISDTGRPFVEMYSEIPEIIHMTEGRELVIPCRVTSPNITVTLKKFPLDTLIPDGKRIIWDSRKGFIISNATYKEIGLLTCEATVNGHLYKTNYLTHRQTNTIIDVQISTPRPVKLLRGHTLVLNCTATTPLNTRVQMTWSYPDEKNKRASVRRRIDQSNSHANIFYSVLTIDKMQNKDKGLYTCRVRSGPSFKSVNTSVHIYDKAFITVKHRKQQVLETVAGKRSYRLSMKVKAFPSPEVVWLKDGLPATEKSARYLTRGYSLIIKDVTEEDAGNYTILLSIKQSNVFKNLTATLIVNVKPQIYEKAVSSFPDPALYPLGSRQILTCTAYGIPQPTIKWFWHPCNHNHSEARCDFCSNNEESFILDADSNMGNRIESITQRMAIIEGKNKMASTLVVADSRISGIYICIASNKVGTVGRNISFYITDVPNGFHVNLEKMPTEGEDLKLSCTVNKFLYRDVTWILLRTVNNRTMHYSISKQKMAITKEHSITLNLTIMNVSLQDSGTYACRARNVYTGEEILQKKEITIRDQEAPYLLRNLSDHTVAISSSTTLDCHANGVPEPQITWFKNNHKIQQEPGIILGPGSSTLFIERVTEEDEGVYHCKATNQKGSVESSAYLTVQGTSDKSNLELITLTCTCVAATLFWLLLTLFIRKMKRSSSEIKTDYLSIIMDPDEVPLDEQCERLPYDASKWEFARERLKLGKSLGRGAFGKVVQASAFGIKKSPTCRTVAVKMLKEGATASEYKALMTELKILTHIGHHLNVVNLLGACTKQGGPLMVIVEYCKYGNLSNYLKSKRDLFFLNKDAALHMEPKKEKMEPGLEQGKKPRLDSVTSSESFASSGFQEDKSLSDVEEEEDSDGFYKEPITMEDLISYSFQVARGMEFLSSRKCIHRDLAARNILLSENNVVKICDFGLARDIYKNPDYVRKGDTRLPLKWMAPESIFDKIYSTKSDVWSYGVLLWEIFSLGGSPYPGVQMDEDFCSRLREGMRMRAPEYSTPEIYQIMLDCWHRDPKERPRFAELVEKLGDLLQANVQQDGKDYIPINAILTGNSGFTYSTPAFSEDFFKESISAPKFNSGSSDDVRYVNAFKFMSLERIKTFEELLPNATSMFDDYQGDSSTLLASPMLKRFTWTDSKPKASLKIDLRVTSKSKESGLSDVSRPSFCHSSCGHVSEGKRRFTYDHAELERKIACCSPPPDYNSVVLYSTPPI
Chain of human VEGF receptor (VEGFR-2) (P35968 786-1356): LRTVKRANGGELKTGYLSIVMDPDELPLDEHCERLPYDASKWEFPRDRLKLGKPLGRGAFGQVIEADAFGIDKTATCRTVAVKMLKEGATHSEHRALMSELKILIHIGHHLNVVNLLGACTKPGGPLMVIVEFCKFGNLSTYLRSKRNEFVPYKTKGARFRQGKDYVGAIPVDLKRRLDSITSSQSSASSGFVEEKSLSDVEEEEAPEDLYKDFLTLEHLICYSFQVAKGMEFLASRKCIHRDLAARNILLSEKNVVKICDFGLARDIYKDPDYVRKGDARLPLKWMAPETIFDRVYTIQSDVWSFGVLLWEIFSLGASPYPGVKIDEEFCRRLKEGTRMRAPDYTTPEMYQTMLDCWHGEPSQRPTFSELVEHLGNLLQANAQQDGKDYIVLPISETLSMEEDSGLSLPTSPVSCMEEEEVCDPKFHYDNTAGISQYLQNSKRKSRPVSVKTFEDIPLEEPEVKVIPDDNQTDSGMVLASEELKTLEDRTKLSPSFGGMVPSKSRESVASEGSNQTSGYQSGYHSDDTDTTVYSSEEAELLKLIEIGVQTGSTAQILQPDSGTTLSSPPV

As for `Cc1ccc(F)c(NC(=O)Nc2ccc(Oc3ccnc4cc(C(=O)NCCCN5CCOC(CO)C5)sc34)cc2)c1` (centres unmarked) [Example 16, 7-[4-({[(2-fluoro-5-methylphenyl)amino]carbonyl}amino)phenoxy]-N-{3-[2-(hydroxymethyl)morpholin-4-yl]propyl}thieno[3,2-b]pyridine-2-carboxamide], the IC50 against PDGFRβ was found to be 15 nM; against VEGFR1 it was 10 nM; in experiment [1], 7 nM.
On to `COC(=O)CNCCCNC(=O)c1cc2nccc(Oc3ccc(NC(=O)Nc4cc(C)ccc4F)c(F)c3)c2s1` [Example 25, methyl ({3-[({7-[3-fluoro-4-({[(2-fluoro-5-methylphenyl)amino]carbonyl}amino)phenoxy]thieno[3,2-b]pyridin-2-yl}carbonyl)amino]propyl}amino)acetate], for which the IC50 was determined as 11 nM against PDGFRβ, 8 nM against VEGFR1 and 5 nM in experiment [1].
For `COC(=O)CN(CCCNC(=O)c1cc2nccc(Oc3ccc(NC(=O)Nc4cc(C)ccc4F)c(F)c3)c2s1)CC(=O)OC` [Example 26, dimethyl 2,2′-({3-[({7-[3-fluoro-4-({[(2-fluoro-5-methylphenyl)amino]carbonyl}amino)phenoxy]thieno[3,2-b]pyridin-2-yl}carbonyl)amino]propyl}imino)diacetate] the same measures were 12 nM, 10 nM and 5 nM.
For `COC(=O)CN(CCNC(=O)c1cc2nccc(Oc3ccc(NC(=O)Nc4cc(C)ccc4F)c(F)c3)c2s1)CC(=O)OC` [Example 27, dimethyl 2,2′-({2-[({7-[3-fluoro-4-({[(2-fluoro-5-methylphenyl)amino]carbonyl}amino)phenoxy]thieno[3,2-b]pyridin-2-yl}carbonyl)amino]ethyl}imino)diacetate] the same measures were 17 nM, 11 nM and 16 nM.
For `COC(=O)C1CCN(C(=O)c2cc3nccc(Oc4ccc(NC(=O)Nc5cc(C)ccc5F)c(F)c4)c3s2)C1` (centres unmarked) [Example 28, methyl 1-({7-[3-fluoro-4-({[(2-fluoro-5-methylphenyl)amino]carbonyl}amino)phenoxy]thieno[3,2-b]pyridin-2-yl}carbonyl)pyrrolidine-3-carboxylate] the same measures were 17 nM, 8 nM and 5 nM.
With `Cc1ccc(F)c(NC(=O)Nc2ccc(Oc3ccnc4cc(C(=O)NCCCN5CCCC(CO)C5)sc34)cc2F)c1` (centres unmarked) [Example 36, 7-[3-fluoro-4-({[(2-fluoro-5-methylphenyl)amino]carbonyl}amino)phenoxy]-N-{3-[3-(hydroxymethyl)piperidin-1-yl]propyl}thieno[3,2-b]pyridine-2-carboxamide], the IC50 against VEGFR1 was 8 nM; in experiment [1] it was 7 nM.
As for `COC(=O)CC[C@H](NC(=O)c1cc2nccc(Oc3ccc(NC(=O)Nc4cc(C)ccc4F)c(F)c3)c2s1)C(=O)OC` [Example 54, dimethyl (2S)-2-[({7-[3-fluoro-4-({[(2-fluoro-5-methylphenyl)amino]carbonyl}amino)phenoxy]thieno[3,2-b]pyridin-2-yl}carbonyl)amino]pentanedioate], the IC50 amounted to 34 nM in experiment [1] and 4 nM on VEGFR2.
For the compound `CCOC(=O)CCCNC(=O)c1cc2nccc(Oc3ccc(NC(=O)Nc4cc(C)ccc4F)cc3)c2s1` [Example 56, ethyl 4-[({7-[4-({[(2-fluoro-5-methylphenyl)amino]carbonyl}amino)phenoxy]thieno[3,2-b]pyridin-2-yl}carbonyl)amino]butanoate], the IC50 was determined as 16 nM at VEGFR1 and 20 nM in experiment [1].
For `Cc1ccc(F)c(NC(=O)Nc2ccc(Oc3ccnc4cc(C(=O)NCCCC(=O)O)sc34)cc2F)c1` [Example 64, 4-[({7-[3-fluoro-4-({[(2-fluoro-5-methylphenyl)amino]carbonyl}amino)phenoxy]thieno[3,2-b]pyridin-2-yl}carbonyl)amino]butanoic acid] the same measures were 7 nM and 13 nM.
For `Cc1ccc(F)c(NC(=O)Nc2ccc(Oc3ccnc4cc(C(=O)NCCCN5CCCCC5)sc34)cc2)c1` [Example 66, 7-[4-({[(2-fluoro-5-methylphenyl)amino]carbonyl}amino)phenoxy]-N-(3-piperidin-1-ylpropyl)thieno[3,2-b]pyridine-2-carboxamide], the values for the half-inhibitory concentration (IC50) (at PDGFRβ; in experiment [1]; on VEGFR2) were 16 nM, 4 nM and 16 nM, respectively.
On to `Cc1ccc(F)c(NC(=O)Nc2ccc(Oc3ccnc4cc(C(=O)NCCCN5CCN(C)CC5)sc34)cc2)c1` [Example 67, 7-[4-({[(2-fluoro-5-methylphenyl)amino]carbonyl}amino)phenoxy]-N-[3-(4-methylpiperazin-1-yl)propyl]thieno[3,2-b]pyridine-2-carboxamide], for which the figures for the IC50 (on PDGFRβ; in experiment [1]; on VEGFR2) were 9 nM, 2 nM and 2 nM, respectively.
In the case of `Cc1ccc(F)c(NC(=O)Nc2ccc(Oc3ccnc4cc(C(=O)NCCCN5CCCC5)sc34)cc2)c1` [Example 68, 7-[4-({[(2-fluoro-5-methylphenyl)amino]carbonyl}amino)phenoxy]-N-(3-pyrrolidin-1-ylpropyl)thieno[3,2-b]pyridine-2-carboxamide], the IC50 came to 16 nM against PDGFRβ, 6 nM in experiment [1] and 20 nM at VEGFR2.
For `Cc1ccoc1C(=O)Nc1cccc(Oc2ccnc3cc(C(=O)O)sc23)c1` [Example 72, 7-{3-[(3-methyl-2-furoyl)amino]phenoxy}thieno[3,2-b]pyridine-2-carboxylic acid] the same measures were 920 nM, 39 nM and 162 nM.
For `Cc1ccoc1C(=O)Nc1cccc(Oc2ccnc3cc(C(=O)NO)sc23)c1` [Example 75, N-hydroxy-7-{3-[(3-methyl-2-furoyl)amino]phenoxy}thieno[3,2-b]pyridine-2-carboxamide] the same measures were 277 nM, 11 nM and 16 nM.
For `Cc1ccc(F)c(NC(=O)c2cccc(Oc3ccnc4cc(C(=O)O)sc34)c2)c1` [Example 84, 7-(3-{[(2-fluoro-5-methylphenyl)amino]carbonyl}phenoxy)thieno[3,2-b]pyridine-2-carboxylic acid] the same measures were 223 nM, 20 nM and 87 nM.
In the case of `CCNC(=O)c1cc2nccc(Oc3cccc(C(=O)Nc4cc(C)ccc4F)c3)c2s1` [Example 85, N-ethyl-7-(3-{[(2-fluoro-5-methylphenyl)amino]carbonyl}phenoxy)thieno[3,2-b]pyridine-2-carboxamide], the IC50 was found to be 74 nM against PDGFRβ, 10 nM in experiment [1] and 16 nM on VEGFR2.
For `CCN(CC)C(=O)c1cc2nccc(Oc3cccc(C(=O)Nc4cc(C)ccc4F)c3)c2s1` [Example 86, N,N-diethyl-7-(3-{[(2-fluoro-5-methylphenyl)amino]carbonyl}phenoxy)thieno[3,2-b]pyridine-2-carboxamide] the same measures were 206 nM, 7 nM and 64 nM.
For `COC(=O)CNCCCNC(=O)c1cc2nccc(Oc3cccc(C(=O)Nc4cc(C)ccc4F)c3)c2s1` [Example 87, Methyl {[3-({[7-(3-{[(2-fluoro-5-methylphenyl)amino]carbonyl}phenoxy)thieno[3,2-b]pyridin-2-yl]carbonyl}amino)propyl]amino}acetate] the same measures were 59 nM, 16 nM and 9 nM.

Source of the values: US9340555B2, “Compounds as tyrosine kinase modulators” (Allergan, Inc., priority 2009, dated 2016).
